{
  "source": "PubChem BioAssay (NCI)",
  "assay_in_all_cases": "inhibition of tumour cell growth, NCI panel, 48 h",
  "key": {"UO-31 renal": {"test_system": "UO-31 renal"}, "OVCAR-5 ovarian": {"test_system": "OVCAR-5 ovarian"}, "SNB-75 CNS": {"test_system": "SNB-75 CNS"}, "HL-60(TB) leukemia": {"test_system": "HL-60(TB) leukemia"}, "SF-295 CNS": {"test_system": "SF-295 CNS"}, "RPMI-8226 leukemia": {"test_system": "RPMI-8226 leukemia"}, "DU-145 prostate": {"test_system": "DU-145 prostate"}, "HOP-92 NSCLC": {"test_system": "HOP-92 NSCLC"}},
  "note": "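Following 48 hours of exposure in 96-well plates, responses at five concentrations were used to interpolate endpoints linearly. At the GI50, growth is halved. TGI is the concentration that stops growth completely.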",
  "data": [
    {"smiles": "OC(c1cc2cc(Cl)ccc2c2cc(C(F)(F)F)ccc12)C1CCCCN1", "note": "(stereo unspecified)", "values": [
      {"measurement": "GI50", "setting": "UO-31 renal", "result": 1.59, "unit": "µM"},
      {"measurement": "TGI", "setting": "UO-31 renal", "result": 3.06, "unit": "µM"},
      {"measurement": "GI50", "setting": "OVCAR-5 ovarian", "result": 1.48, "unit": "µM"},
      {"measurement": "TGI", "setting": "OVCAR-5 ovarian", "result": 2.94, "unit": "µM"},
      {"measurement": "GI50", "setting": "SNB-75 CNS", "result": 1.69, "unit": "µM"},
      {"measurement": "TGI", "setting": "SNB-75 CNS", "result": 3.14, "unit": "µM"},
      {"measurement": "GI50", "setting": "HL-60(TB) leukemia", "result": 1.92, "unit": "µM"},
      {"measurement": "TGI", "setting": "HL-60(TB) leukemia", "result": 3.72, "unit": "µM"},
      {"measurement": "GI50", "setting": "SF-295 CNS", "result": 1.96, "unit": "µM"},
      {"measurement": "TGI", "setting": "SF-295 CNS", "result": 3.69, "unit": "µM"},
      {"measurement": "GI50", "setting": "RPMI-8226 leukemia", "result": 2.21, "unit": "µM"},
      {"measurement": "TGI", "setting": "RPMI-8226 leukemia", "result": 4.92, "unit": "µM"},
      {"measurement": "GI50", "setting": "DU-145 prostate", "result": 1.9, "unit": "µM"},
      {"measurement": "TGI", "setting": "DU-145 prostate", "result": 3.37, "unit": "µM"},
      {"measurement": "GI50", "setting": "HOP-92 NSCLC", "result": 1.42, "unit": "µM"},
      {"measurement": "TGI", "setting": "HOP-92 NSCLC", "result": 2.97, "unit": "µM"}
    ]}
  ]
}
